Literature values in US8101589B2, “Nitric oxide-releasing molecules” (Noxilizer, Inc., priority 2004, dated 2012).

Conditions: literature (Traube, 1898)

methylene bisdiazeniumdiolate
NO release in solution: inability to release NO
